Data reported in patent US11278561B2, “Combination treatment for hematological cancers” (Geron Corporation, priority 2016, dated 2022).

Assays:
[1] = system: KG-1 cells; assay: Annexin V / Propidium Iodide flow cytometry apoptosis assay in KG-1; assay type: cell-based; set-up: key to Excess over HSA / Excess over BLISS: excess in % apoptotic (Annexin V/PI double-labeled) cells over HSA/Bliss; details: for Excess over BLISS / Excess over HSA: imetelstat sodium μM: r7 50, r8 25, r9 10, r10 0
Description: AML tumor cells KG-1 (ATCC #CCL-246) and MOLM-13 (DSMZ #ACC554) were plated at a density of ˜20,000 cells per well on 96-well polystyrene U-bottom tissue culture plates (Corning catalog #353777) in RPMI-1640 (ThermoFisher catalog #11875-085) supplemented with 10% fetal bovine serum (ThermoFisher catalog #16140-089) and 1% penicillin/streptomycin antibiotic cocktail (ThermoFisher catalog 15140-122) and grown in a 37° C. incubator under humidified 5% CO2 atmosphere.
At 48 and 96 hours, cells were measured for healthy, early apoptotic and apoptotic populations with an Annexin V (interior cell membrane stain) plus Propidium Iodide (PI, DNA binding dye) flow cytometry assay kit (BioLegend catalog 640914). Annexin V detects the externalization of phosphatidylserine in apoptotic cells using recombinant annexin V conjugated to green-fluorescent FITC dye and dead cells using Propidium iodide (PI). Propidium iodide stains necrotic cells with red fluorescence. After treatment with both probes, early apoptotic cells show green fluorescence, apoptotic (dead) cells show red and green fluorescence, and live cells show little or no fluorescence. […] Cells were stained for 30 minutes at 4° C. in the dark, followed by 3× washes with PBS and suspension in FACs Stain Buffer (BD catalog 554657) prior to interrogation on a BD FACs Canto flow cytometer for forward scatter, side scatter, FITC, and PE channels. […] The percentage of apoptotic cells (double labeled) was used to calculate combination effects using both the Highest Single Agent (HSA) and Bliss additivity models (J Tang et al. Frontiers in Pharmacology. 2015; 6 (181)).
Using the HSA model, the cytotoxic effect of the combined condition (“C”) was compared to the effect generated by each of the single agent controls (“A” or “B”) for the respective dose in the combination: Excess over HSA=C−A (if A>B) or C−B (if A<B)
The Bliss model performs a similar comparison, but instead of the highest effect of single agent, the Bliss model subtracts from the combination a value equal to the sum of each single agent minus their product: Excess over Bliss=C−[(A+B)−(A*B)]

[2] = system: telomerase; assay: telomerase activity by qPCR TRAP in KG-1 lysates; assay type: cell-based, human; details: 50 μM imetelstat sodium or 20 nM ABT-199
Description: Samples from the previous section for protein analysis were collected as cell pellets by centrifugation at 5 minutes for 1500K for lyses and protein extraction. Protein lysates were analyzed by utilizing a modified method combined from two primary sources (Hou, et al. (2001) 43(3) 519-524 and Nature Protocols (2006) 1 (3) 1583-1590). Lysates were generated by adding 80 μL of a 10 mM Tris-EDTA, 1% NP-40, 10% Glycerol, 150 mM NaCl, 1 mM MgCl2, 250 μM Sodium Deoxycholate, 100 μM AEBSF, 5 mM 2-mercaptoethanol buffer and incubating on ice for 30 minutes. Lysates were centrifuged for 15 minutes at max speed and at 4° C. to pellet cellular debris. Protein yield from clarified lysates were quantified using a BCA assay (ThermoFisher catalog 23252) and subjected to a qPCR TRAP-based assay to determine relative telomerase activity (Power SYBR Green PCR Master Mix—ThermoFisher #4367659) using a ViiA7 Real-Time PCR system from ThermoFisher. In this assay, protein lysates are exposed to synthetic oligonucleotides mimicking telomere sequences in the presence of excess dNTPs and SYBR green dye. The greater the activity of telomerase, the greater extension of the synthetic primers, and therefore greater staining of nucleic acid and signal generated by the SYBR dye. This signal is compared to a standard curve of control protein lysate to determine the relative telomerase activity between samples.

[3] = system: MOLM-13 AML disseminated model; assay: MOLM-13 AML disseminated mouse model, survival; assay type: in vivo; details: MOLM-13 implanted SCID-beige mice; imetelstat sodium or MM 30 mg/kg ip TIW x 4 weeks, ABT-199 100 mg/kg po qd x 4 weeks
Description: An in vivo study in the MOLM-13 AML disseminated mouse model was conducted to assess efficacy and survival. Specifically, on day 0 of the study, MOLM-13 AML tumor cells were implanted into mice. […] The percent survival of the mice was assessed as a function of time (days post tumor cell implantation). The study lasted for a total of 108 days (77 days after stopping treatment).
Fifty female SCID-beige mice (6-week-old, Jackson Laboratory) were intravenously injected with 1 million MOLM-13 cells and randomly divided into five groups.
Mice were observed daily and body weights were measured twice a week. The survival of mice in each group was followed. The study was terminated on day 108, which was 77 days post last treatment. The increased life span (“ILS”) was evaluated for each group, and the % ILS versus the vehicle control was calculated as: % ILS=100×(T−C)/C where T is the median survival of the treatment group and C is the median survival of the control group.

CC1(C)CCC(CN2CCN(c3ccc(C(=O)NS(=O)(=O)c4ccc(NCC5CCOCC5)c([N+](=O)[O-])c4)c(Oc4cnc5[nH]ccc5c4)c3)CC2)=C(c2ccc(Cl)cc2)C1 [ABT-199, 4-[4-[[2-(4-chlorophenyl)-4,4-dimethylcyclohexen-1-yl]methyl]piperazin-1-yl]-N-[3-nitro-4-(oxan-4-ylmethylamino)phenyl]sulfonyl-2-(1H-pyrrolo [2,3-b]pyridin-5-yloxy)benzamide]
Excess over BLISS ([1]; KG-1, 48 hours (title of Table 6), ABT-199 1 nM): 0 | Excess over BLISS ([1]; KG-1, 48 hours (title of Table 6), ABT-199 5 nM): 0 | Excess over BLISS ([1]; KG-1, 48 hours (title of Table 6), ABT-199 20 nM): 0 | Excess over BLISS ([1]; KG-1, 48 hours (title of Table 6), ABT-199 100 nM): 0 | Excess over BLISS ([1]; KG-1, 48 hours (title of Table 6), ABT-199 500 nM): 0 | Excess over BLISS ([1]; KG-1, 48 hours, ABT-199 1 nM): 0 | Excess over HSA ([1]; KG-1, 48 hours, ABT-199 1 nM): 0 | Excess over BLISS ([1]; KG-1, 48 hours, ABT-199 5 nM): 0 | Excess over HSA ([1]; KG-1, 48 hours, ABT-199 5 nM): 0 | Excess over BLISS ([1]; KG-1, 48 hours, ABT-199 20 nM): 0 | Excess over HSA ([1]; KG-1, 48 hours, ABT-199 20 nM): 0 | % apoptotic cells (double label) ([1]; KG-1, 48 hours, ABT-199 100 nM): ~9% | Excess over BLISS ([1]; KG-1, 48 hours, ABT-199 100 nM): 0 | Excess over HSA ([1]; KG-1, 48 hours, ABT-199 100 nM): 0 | % apoptotic cells (double label) ([1]; KG-1, 48 hours, ABT-199 500 nM): ~14% | Excess over BLISS ([1]; KG-1, 48 hours, ABT-199 500 nM): 0 | Excess over HSA ([1]; KG-1, 48 hours, ABT-199 500 nM): 0 | Excess over HSA ([1]; KG-1, 96 hours, ABT-199 1 nM): 0 | Excess over HSA ([1]; KG-1, 96 hours, ABT-199 5 nM): 0 | Excess over HSA ([1]; KG-1, 96 hours, ABT-199 20 nM): 0 | % apoptotic cells (double label) ([1]; KG-1, 96 hours, ABT-199 100 nM): ~6% | Excess over HSA ([1]; KG-1, 96 hours, ABT-199 100 nM): 0 | % apoptotic cells (double label) ([1]; KG-1, 96 hours, ABT-199 500 nM): ~10% | Excess over HSA ([1]; KG-1, 96 hours, ABT-199 500 nM): 0 | telomerase activity as compared to control ([2]; KG-1, 48 hours): no effect | telomerase activity as compared to control ([2]; KG-1, 96 hours): ~80% | % ILS (increased life span as compared to vehicle control) [3]: 36.3% | Median Survival [3]: 30 days
